Test results published in ChEMBL document CHEMBL1150587, “Evaluation of the potential cancer chemotherapeutic efficacy of natural product isolates employing in vivo hollow fiber tests” (J Nat Prod, 2002).
The source made the active and inactive calls. The rule behind the calls is not given here.

Tests used:
Col2 = test: Cytotoxicity against human Col2 cells after 72 hrs by SRB assay; type: functional, cell-based; details: Col2, 72 h
Mus musculus [1] = test: Toxicity in NCr nu/nu mouse subcutaneously implanted with human KB cells assessed as mortality at 17.6 umol/kg, ip administered on day 10, 13, 16, 20 of implantation; type: organism-based; details: in vivo
KB [2] = test: Growth inhibition of human KB cells implanted subcutaneously to NCr nu/nu mouse at 4.39 to 35.1 umol/kg, ip administered from day 3 to 6 after implantation measured on day 7 by MTT-based hollow-fiber test; type: functional
SK-MEL-2 = test: Cytotoxicity against human SK-MEL-2 cells after 72 hrs by SRB assay; type: functional, cell-based; details: SK-MEL-2, 72 h
Mus musculus [3] = test: Toxicity in tumor cell implanted NCr nu/nu mouse assessed as body weight change at 17.6 umol/kg, ip administered from day 3 to 6 after implantation measured on day 7; type: organism-based; details: in vivo
Mus musculus [4] = test: Toxicity in NCr nu/nu mouse subcutaneously implanted with human KB cells assessed as change in body weight at 4.39 umol/kg, ip administered on day 10, 13, 16, 20 of implantation; type: organism-based; details: in vivo
SW626 [5] = test: Cytotoxicity against human SW626 cells after 72 hrs by SRB assay; type: functional, cell-based; details: SW626, 72 h
P388 = test: Cytotoxicity against mouse P388 cells after 72 hrs by SRB assay; type: functional, cell-based; details: P388, 72 h
Mus musculus [6] = test: Toxicity in tumor cell implanted NCr nu/nu mouse assessed as body weight change at 8.78 umol/kg, ip administered from day 3 to 6 after implantation measured on day 7; type: organism-based; details: in vivo
Mus musculus [7] = test: Toxicity in tumor cell implanted NCr nu/nu mouse assessed as body weight change at 35.1 umol/kg, ip administered from day 3 to 6 after implantation measured on day 7; type: organism-based; details: in vivo
KB [8] = test: Growth inhibition of human KB cells implanted intraperitoneally to NCr nu/nu mouse at 4.39 to 35.1 umol/kg, ip administered from day 3 to 6 after implantation measured on day 7 by MTT-based hollow-fiber test; type: functional
Mus musculus [9] = test: Toxicity in tumor cell implanted NCr nu/nu mouse assessed as body weight change at 4.39 umol/kg, ip administered from day 3 to 6 after implantation measured on day 7; type: organism-based; details: in vivo
KB [10] = test: Cytotoxicity against human KB cells after 72 hrs by SRB assay; type: functional, cell-based
[11] = Growth inhibition of human KBV1 cells implanted subcutaneously to NCr nu/nu mouse at 4.39 to 35.1 umol/kg, ip administered from day 3 to 6 after implantation measured on day 7 by MTT-based hollow-fiber test; type: functional, KB-V1
SW626 [12] = test: Growth inhibition of human SW626 cells implanted subcutaneously to NCr nu/nu mouse at 4.39 to 35.1 umol/kg, ip administered from day 3 to 6 after implantation measured on day 7 by MTT-based hollow-fiber test; type: functional
Mus musculus [13] = test: Toxicity in NCr nu/nu mouse subcutaneously implanted with human KB cells assessed as change in body weight at 17.6 umol/kg, ip administered on day 10, 13, 16, 20 of implantation; type: organism-based; details: in vivo
SW626 [14] = test: Growth inhibition of human SW626 cells implanted intraperitoneally to NCr nu/nu mouse at 4.39 to 35.1 umol/kg, ip administered from day 3 to 6 after implantation measured on day 7 by MTT-based hollow-fiber test; type: functional
Mus musculus [15] = test: Toxicity in NCr nu/nu mouse subcutaneously implanted with human KB cells assessed as change in body weight at 8.78 umol/kg, ip administered on day 10, 13, 16, 20 of implantation; type: organism-based; details: in vivo
Mus musculus [16] = test: Toxicity in NCr nu/nu mouse subcutaneously implanted with human KB cells assessed as mortality at 4.39 umol/kg, ip administered on day 10, 13, 16, 20 of implantation; type: organism-based; details: in vivo
KB [17] = test: Growth inhibition of human KB cells implanted subcutaneously to NCr nu/nu mouse assessed as tumor size at 4.39 to 28.5 umol/kg, ip administered on day 10, 13, 16, 20 of implantation; type: functional, organism-based
Mus musculus [18] = test: Toxicity in NCr nu/nu mouse subcutaneously implanted with human KB cells assessed as mortality at 8.78 umol/kg, ip administered on day 10, 13, 16, 20 of implantation; type: organism-based; details: in vivo
[19] = Cytotoxicity against human KBV1 cells after 72 hrs by SRB assay; type: functional, cell-based; details: KB-V1, 72 h
[20] = Growth inhibition of human KBV1 cells implanted intraperitoneally to NCr nu/nu mouse at 4.39 to 35.1 umol/kg, ip administered from day 3 to 6 after implantation measured on day 7 by MTT-based hollow-fiber test; type: functional, KB-V1
LNCaP = test: Cytotoxicity against human LNCAP cells after 72 hrs by SRB assay; type: functional, cell-based
Lu1 = test: Cytotoxicity against human Lu1 cells after 72 hrs by SRB assay; type: functional, cell-based; details: Lu1, 72 h
Mus musculus [21] = test: Toxicity in NCr nu/nu mouse subcutaneously implanted with human KB cells assessed as change in body weight at 35.1 umol/kg, ip administered on day 10, 13, 16, 20 of implantation; type: organism-based; details: in vivo

CC(=O)O[C@H]1C(=O)[C@@]2(C)[C@H]([C@H](OC(=O)c3ccccc3)[C@]3(O)C[C@H](OC(=O)[C@H](O)[C@@H](NC(=O)c4ccccc4)c4ccccc4)C(C)=C1C3(C)C)[C@]1(OC(C)=O)CO[C@@H]1C[C@@H]2O [PACLITAXEL]
IC50 (Col2): 20 nM | Activity (Mus musculus [1]): Non-toxic | inhibition (INH) (KB [2]): 19.5% | IC50 (SK-MEL-2): 70 nM | Activity (Mus musculus [3]): 1.8 g | Activity (Mus musculus [4]): 9.4% | IC50 (SW626 [5]): 0.01 nM | IC50 (P388): 20 nM | Activity (Mus musculus [6]): 1.4 g | Activity (Mus musculus [7]): 1.1 g | inhibition (INH) (KB [8]): 70.2% | Activity (Mus musculus [9]): 1.7 g | IC50 (KB [10]): 20 nM | inhibition (INH) [11]: 13.1% | inhibition (INH) (SW626 [12]): 0% | Activity (Mus musculus [13]): 8.2% | inhibition (INH) (SW626 [14]): 98.7% | Activity (Mus musculus [15]): 6.7% | Activity (Mus musculus [16]): Non-toxic | Activity (KB [17]): inactive | Activity (Mus musculus [18]): Non-toxic | IC50 [19]: > 2300 nM | inhibition (INH) [20]: 0% | IC50 (LNCaP): 20 nM | IC50 (Lu1): 10 nM | Activity (Mus musculus [21]): 7.8%
